Values of other authors, collected in patent publication US20040018954A1, “Composition of menthol and menthyl lactate, its preparation method and its applications as a cooling agent” (priority 2002, published 2004).

Settings: manufacturer's product literature

solubility: oil soluble
stable in the pH range: 4-8
Structure (SMILES): CC1CCC(C(C)C)C(OC(=O)C(C)O)C1 (centres unmarked) [Frescolat ML, menthyl lactate]
